Source: ChEMBL document CHEMBL1154198, “Chemical genetics of Plasmodium falciparum” (Nature, 2010)

How the values were obtained:
[1] = tested on: Plasmodium falciparum; assay: ST_JUDE: Plasmodium falciparum 3D7 EC50 (uM) as measured by SYBR green dye; type: functional, organism-based
[2] = tested on: Plasmodium falciparum; assay: ST_JUDE: Plasmodium falciparum K1 EC50 (uM) as measured by SYBR green dye; type: functional, organism-based

Row | SMILES | EC50 [1] [µM] | EC50 [2] [µM]
1 | CCc1ccc(C2C3=C(O)CC(C)(C)CC3=Nc3cc(OC)c(OC)c(OC)c32)cc1 (centres undefined) | > 15 | 4.85
2 | CCCCOC(=O)c1ccc(Nc2cc(C)nc3ccccc23)cc1 | 3.4 | > 15
3 | CN(C(=O)c1cc2c(s1)-c1ccccc1S(=O)(=O)C2)c1cccc(Cl)c1 | 0.711 | 1.05
4 | CCCCN(C)Cc1c(C)nc2ccc(OCc3ccccc3)cc2c1O | > 15 | > 15
5 | C[n+]1ccccc1/C=C/c1ccc(O)cc1 | 3.18 | 3.28
6 | COc1ccc2nc(N(Cc3cccnc3)C(=O)CCc3ccccc3)sc2c1 | > 15 | 3.53
7 | CCOc1ccccc1N(CC(=O)Nc1ccccc1C(C)C)S(=O)(=O)c1ccccc1 | > 15 | > 15
8 | COc1ccccc1CCN1COc2c(cc3c(C)c(C)c(=O)oc3c2C)C1 | 1.5 | 0.49
9 | CCCCn1nnnc1NCc1cc(Cl)c(OC)c(OC)c1 | 5.86 | > 15
10 | COc1ccc(C2CC3=NC(C)=C(C(=O)OCC(C)C)C(c4ccc(F)cc4)C3=C(O)C2)cc1 (centres undefined) | 2.7 | 3.01
11 | COc1ccc2c(c1OC)C(=O)N1c3ccccc3N=C(c3ccc([N+](=O)[O-])cc3)CC21 (centres undefined) | > 15 | > 15
12 | CCOC(=O)c1c(NC(=O)C(c2ccccc2)c2ccccc2)sc(C(=O)N(CC)CC)c1C | > 15 | > 15
13 | CCOC(=O)c1ccc(NC2=C(N3CCCCC3)C(=O)c3ccccc3C2=O)cc1 | 0.0422 | 0.111
14 | Cc1ccc(C(=O)Nc2ccc3c(c2)N(S(=O)(=O)c2ccc(F)cc2)CCC3)cc1 | > 15 | > 15
15 | O=C(Cc1ccc(Cl)cc1)Nc1ccc(-c2nc3ccccc3[nH]2)cc1 | > 15 | > 15
16 | COc1ccccc1NC(=O)CN1CCN(C(=O)c2ccco2)CC1 | 2.84 | 4.84
17 | O=C(O)/C=C1\SC(=O)NC1=O | > 15 | > 15
18 | COC(=O)c1ccc(NC(=O)CSc2ccc3nnc(-c4ccc(C)cc4)n3n2)cc1 | > 15 | > 15
19 | CCOc1ccc2nc(C)cc(Nc3ccc4c(c3)OCCO4)c2c1 | > 15 | 9.41
20 | O=C(N/N=c1/oc2ccc(Br)cc2cc1-c1nc2ccccc2[nH]1)c1ccncc1 | 4.71 | > 15
21 | Cc1cc(C)c2c(=O)cc(C(Cl)(Cl)Cl)oc2c1 | > 15 | > 15
22 | CCCCCC(O)(c1ccccc1)C(CN1CCOCC1)c1ccccc1 (centres undefined) | 3.26 | 2.04

Row | SMILES | EC50 [1] [µM] | EC50 [2] [µM]
23 | Cc1ccccc1NC(=O)C1c2ccccc2C(=O)N(C2CCCC2)C1c1cccs1 (centres undefined) | 2.82 | 4.34
24 | Cc1ccc(Nc2nc(N)c3ccccc3n2)cc1C | 1.33 | 3.91
25 | Nc1ccc(-c2nc3cc(Cc4ccc5[nH]c(-c6ccc(N)cc6)nc5c4)ccc3[nH]2)cc1 | 1.08 | 1.13
26 | CCCCn1c(C)c(C(=O)OCC)c2cc(OC(C)=O)c(Br)cc21 | 2.76 | > 15
27 | CCCCCCCCn1cnc2ccccc21 | > 15 | > 15
28 | CC(=O)N(C1=C(N(C)C)C(=O)c2ccccc2C1=O)c1cccc(I)c1 | 0.0566 | 0.0862
29 | CCCCc1ccc(Nc2cc(C)nc(-n3nc(C)cc3C)n2)cc1 | > 15 | 4.64
30 | CC(=O)c1cccc(NC(=O)C2c3ccccc3C(=O)N(C3CCCC3)C2c2cccs2)c1 (centres undefined) | 1.75 | 2.02
31 | Oc1c(CN2CCN(c3ccccc3F)CC2)cc(Br)c2cccnc12 | 3.76 | 3.44
32 | COc1ccc(OC)c(NC(=O)C2c3ccccc3C(=O)N(CC(C)C)C2c2cccs2)c1 (centres undefined) | 0.503 | 0.612
33 | O=C(Nc1ccc(Cl)cc1)Nc1ccc(F)c(Cl)c1 | 3.72 | 3.57
34 | Cc1cccc(NS(=O)(=O)c2cc3c4c(c2)CCN4C(=O)CC3)c1 | > 15 | > 15
35 | Cc1ccnc(NC(c2ccc(Cl)cc2Cl)c2ccc3cccnc3c2O)c1 (centres undefined) | 1.56 | 1.44
36 | CCCCc1ccc(NC(=O)Cc2csc(NC(=O)c3cc(OC)cc(OC)c3)n2)cc1 | > 15 | > 15
37 | CN(C)S(=O)(=O)c1ccc(C(=O)NNc2nc3ccc(Cl)cc3s2)cc1 | 4.68 | 4.5
38 | COc1cc(/C=C/c2ccc3cccc(OC(C)=O)c3n2)cc(Cl)c1OC | > 15 | 6.11
39 | CCCCC(=O)NC(c1cccs1)c1cc(Cl)c2cccnc2c1O (centres undefined) | > 15 | > 15
40 | CCOc1ccc(-c2nonc2NC(=O)c2ccccc2Cl)cc1OCC | 0.49 | 0.538
41 | Cc1ccccc1OCC(O)Cn1c(=N)n(CCN2CCCCC2)c2ccccc21 (centres undefined) | 4.76 | 5.4
42 | CCCOc1ccccc1C(=O)Nc1nonc1-c1ccc(OCC)c(OCC)c1 | > 15 | 0.595
43 | CCCN(CCC)CCCNC(=S)Nc1ccc2nc(N3CCN(C)CC3)cc(C)c2c1 | 3.4 | 5.25
44 | CN(C)c1ccc(C(O)(c2ccc(N(C)C)cc2)c2ccc(N(C)C)cc2)cc1 [METHYLROSANILINE] | 0.62 | 0.178

Row | SMILES | EC50 [1] [µM] | EC50 [2] [µM]
45 | CCN(CC)CCNC(=O)c1c(C)oc2c1C(=O)c1ccccc1C2=O | 0.256 | 0.191
46 | Cn1c2c(c(=N)c3c1CCC3)CCCC2 | 2.39 | 5.79
47 | CCc1cccc(NC(=O)C2c3ccccc3C(=O)N(C3CCCC3)C2c2cccs2)c1 (centres undefined) | 2.29 | 2.01
48 | Cc1ccc2ccc(C(Nc3ccccn3)c3cccc(Cl)c3)c(O)c2n1 (centres undefined) | 4.13 | 3.66
49 | Cc1cc(Br)ccc1OCCCCn1ccnc1 | > 15 | > 15
50 | COc1ccccc1/C=C/CN1CCC(C(Cc2ccccc2)N(C)C(=O)c2cc(C)nn2C)CC1 (centres undefined) | > 15 | > 15
51 | COc1cc(/C=C/C(=O)Nc2cccc(Br)c2)cc(OC)c1OC | > 15 | > 15
52 | CCN(CC)C(=O)CSc1nc2cc(OC)c(OC)cc2c2nc(-c3ccccc3)nn12 | > 15 | 0.335
53 | Cc1ccc2oc(-c3cccc(NC(=O)C(Cl)(Cl)Cl)c3C)nc2c1 | > 15 | 1.59
54 | CCOC(=O)c1ccc2nc(C)cc(Nc3ccc(OC)cc3)c2c1 | 2.86 | > 15
55 | Cc1nc2ccc(/N=C/c3ccc(N(C)C)cc3)cc2s1 | > 15 | > 15
56 | CCN(CC)c1cc(C)nc(Nc2ccc(NS(=O)(=O)c3cc(C)ccc3OC)cc2)n1 | 4.17 | > 15
57 | CS(=O)(=O)N(CC(=O)Nc1ccccc1Sc1ccccc1)c1ccc(Cl)c(Cl)c1 | 4.06 | 5.95
58 | CC1Cc2nc(SCC(=O)Nc3cccc(F)c3)n(C)c(=O)c2S1 (centres undefined) | 1.62 | 2.07
59 | CCOC(=O)c1cnc2ccc(OC)cc2c1NCCCN1CCOCC1 | 5.94 | 4.38
60 | COc1ccc(S(=O)(=O)NC2=C/C(=N\c3ccc(NC(C)=O)cc3)C(=O)c3ccccc32)cc1 | 5.75 | 2.87
61 | CCc1cc(Br)ccc1NC(=O)Nc1ccc([N+](=O)[O-])cc1 | > 15 | > 15
62 | COc1ccc(S(=O)(=O)n2nc(-c3ccc(Cl)cc3)cc2N)cc1OC | 6.54 | > 15
63 | CCN(CC)C(=O)c1ccc2c(c1)N(Cc1ccccc1)C(=O)c1ccccc1S2(=O)=O | > 15 | > 15
64 | COc1ccc(Cn2c(SCc3ccccc3F)nc3nccnc3c2=O)cc1 | 0.344 | 11.7
65 | CCC(=O)C1=C(c2ccc(F)cc2)N(C(=O)CC)n2cnnc2S1 | > 15 | > 15
66 | COc1ccc(N2C(=O)/C(=C/Nc3ccccc3OC)c3ccccc3C2=O)cc1 | > 15 | > 15

Row | SMILES | EC50 [1] [µM] | EC50 [2] [µM]
67 | COc1ccc2c(c1)C=C/C(=C\c1sc3ccccc3[n+]1C)N2C | 0.163 | 0.145
68 | CO/C(O)=C1\C(C)=NC2=C(C(=O)CC(c3ccccc3Cl)C2)C1c1ccc(OC)c(OC)c1 (centres undefined) | > 15 | 9.39
69 | Cc1cccc2sc(NNC(=O)c3ccc(S(=O)(=O)N4CCCCC4C)cc3)nc12 (centres undefined) | > 15 | > 15
70 | CNc1c([N+](=O)[O-])nn(-c2ccc(Cl)cc2)[n+]1[O-] | > 15 | 3.76
71 | O=C(Nc1cccc(Br)c1)c1cc2ccccc2cc1O | > 15 | 0.57
72 | CC[n+]1cccc(-c2nc3ccccc3s2)c1 | 7.66 | 5.92
73 | COc1ccccc1[N+]1=C2CCCCN2C(O)(c2ccc(Cl)cc2)C1 (centres undefined) | > 15 | 7.71
74 | O=C(O)c1cccc(NC2=C(n3nnc4ccccc43)C(=O)c3ccccc3C2=O)c1 | > 15 | 4.19
75 | Cc1cc(Cn2ccnc2)c(C)c([N+](=O)[O-])c1Cn1ccnc1 | > 15 | > 15
76 | CCS(=O)(=O)c1ccccc1C(=O)Nc1nc(-c2ccccn2)cs1 | 6.53 | 5.14
77 | CCOC(=O)c1cnc2ccc(OC)cc2c1NCc1ccccc1 | 2.77 | > 15
78 | CCCCN(CC)CCNC(=O)c1cc2c(-c3ccccc3F)nn(C)c2s1 | 2.07 | > 15
79 | COc1ccc(C2C3=C(O)CC(c4ccccc4)CC3=NC(C)=C2C(=O)OCC(C)C)cc1OC (centres undefined) | > 15 | 3.92
80 | CCCCC(=O)NC(c1ccc(Cl)cc1Cl)c1ccc2cccnc2c1O (centres undefined) | > 15 | 5.3
81 | O=C1c2ccccc2C(=O)c2cc(S(=O)(=O)N(CCO)CCO)ccc21 | 5.89 | 3.21
82 | Oc1c(C(Nc2ccccn2)c2cccc(Oc3ccccc3)c2)ccc2cccnc12 (centres undefined) | 2.92 | 2.76
83 | Cc1ccccc1-n1c(N)c(C#N)c2nc3ccccc3nc21 | 1.64 | 4.25
84 | CCCCOc1ccc(NC2=C(N3CCCCC3)C(=O)c3ccccc3C2=O)cc1 | 0.0145 | 0.0135
85 | Cc1ccc(-c2cc(-c3cc(Cl)ccc3O)[nH]n2)cc1 | 5.01 | 2.92
86 | COc1ccc(N2CCN(C(=S)Nc3ccccc3Cl)CC2C)cc1 (centres undefined) | 1.4 | 3.56
87 | CCC(C(=O)NCc1ccccc1Cl)n1c2ccccc2c2nc(=O)cc(C)n21 (centres undefined) | > 15 | > 15
